Reference: the METLIN SMRT retention time set (Domingo-Almenara et al. 2019)

Test: gradient 5% acetonitrile 3 min, to 50% in 2 min, to 85% in 15 min, held 3 min, 100 µL/min
Conditions: column: Zorbax Extend-C18 2.1 x 50 mm; eluents: water / acetonitrile, 0.1% formic acid
Method in brief: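 The mobile phases were water and acetonitrile, each with 0.1% formic acid, pumped at 100 μL/min through a Zorbax Extend-C18 column (2.1 × 50 mm, 1.8 μm). Pure standards were injected as mixtures of ~100 molecules and detected by a quadrupole time-of-flight mass spectrometer in positive and negative ionization mode. Retention time came from computationally picked adduct peaks, each inspected by hand.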

Row | RP-LC retention time [s] | Structure (SMILES)
1 | 798 | CCOC(=O)C1CCCN(S(=O)(=O)c2cccc3cccnc23)C1 (configuration not stated)
2 | 881 | CC(=O)N1c2ccc(S(=O)(=O)N3CCCCC3)cc2CC1C(=O)N1CCC(C)CC1 (configuration not stated)
3 | 850 | O=C(CCCS(=O)(=O)c1ccc(F)cc1)Nc1cccc(Cl)c1Cl
4 | 768 | CN(C)C(=O)c1csc(S(=O)(=O)N2CCC(C(=O)N3CCN(c4ccccc4)CC3)CC2)c1
5 | 712 | CCOc1ccc(C(C)NC(=O)C2CCN(c3cnc4nccnc4c3)CC2)cc1 (configuration not stated)
6 | 731 | Cn1cccc1CN(Cc1cccs1)C(=O)CN1C(=O)CCC1=O
7 | 670 | Cc1cc(=O)n(CC(=O)Nc2ccccc2)c(N2CCCCC2)n1
8 | 743 | CC(=O)N1c2ccc(S(=O)(=O)N3CCCCC3)cc2CC1C(=O)N1CCCC1 (configuration not stated)
9 | 649 | O=C(c1c[nH]c2ccccc12)N1CCCC1c1nc(-c2ccccc2)n[nH]1 (configuration not stated)
10 | 710 | Oc1cccc(-c2nc3ncccn3c2Nc2ccc(Cl)cc2)c1
11 | 785 | Cc1cc(C)cc(Nc2nc(C)cc(=O)n2CC(=O)Nc2ccc3c(c2)OCCO3)c1
12 | 928 | Cc1cccc(S(=O)(=O)NC2CCN(c3ccc(F)cc3)C2=O)c1 (configuration not stated)
13 | 615 | Cc1ccc(C(=O)N2C[C@@H]3C[C@H]2C[C@@H]3NS(=O)(=O)c2ccccc2)cn1
14 | 621 | CN(C)c1ccc(CCNC(=O)c2cccc(C(F)(F)F)c2)cc1
15 | 720 | CCN1CCN(C2CCN(C(=O)c3cccc(Br)c3)CC2)C1=O
16 | 882 | COc1ccc(NC(=O)Cc2csc3nc(-c4cccc(Br)c4)cn23)cc1OC
17 | 999 | CCOC(=O)c1csc(NC(=O)c2sc3ccccc3c2Cl)n1
18 | 740 | CN1CC2(CCCC2)N(C(=O)COc2ccc(F)cc2)CC1=O
19 | 900 | O=C(c1nc(Cn2nc(-c3ccc(F)cc3)ccc2=O)no1)N1CCCC1

Row | RP-LC retention time [s] | Structure (SMILES)
20 | 853 | O=C(NC1CCCC1)c1ccc(Cn2nc(N3CCN(c4ccc(F)cc4)CC3)ccc2=O)o1
21 | 710 | Cc1cc(C)cc(NC(=O)Cn2cnc(C)c(C)c2=O)c1
22 | 642 | O=C(Cn1nc2n(c1=O)CCCC2)NCc1ccc(F)cc1
23 | 917 | CCOC(=O)c1nnn(-c2ccccc2OC)c1C(=O)OCC
24 | 642 | Cc1nn(-c2ccccc2)c2ccn(CC(=O)N3CCN(c4ccccc4Cl)CC3)c(=O)c12
25 | 899 | Cc1cc(-c2nnc(C3CCC3)o2)c(C)n1CC(=O)NCc1ccc(F)cc1Cl
26 | 729 | CS(=O)(=O)N1CCC(OC2CCN(C(=O)Nc3ccc(F)cc3)CC2)CC1
27 | 946 | CC1=C(c2ccccc2)S(=O)(=O)N=C1N1CCCN(C(=O)CCC2CCCC2)CC1
28 | 1150 | Cc1cccc(-c2noc(CN3N=NC4C(=O)N(c5ccc(C(C)C)cc5)C(=O)C43)n2)c1 (configuration not stated)
29 | 702 | CCn1cc(C)c(C(=O)O)c1CC(=O)NCc1ccco1
30 | 740 | O=c1cc(Cn2nc3c(-c4nc(-c5ccccc5)no4)cccn3c2=O)nc2ccccn12
31 | 774 | O=C(c1ccsc1)N1CCN(c2[nH]ncc2-c2ccccc2)CC1
32 | 640 | CCc1cc(N2CCN(C(=O)c3ccc(Br)cc3)CC2)nc2nnc(C)n12
33 | 682 | CCNc1cc(N2CCC(CCC(=O)Nc3ccc(OCC)cc3)CC2)ncn1
34 | 946 | COc1ccc(NC(=O)C2CCN(S(=O)(=O)c3cc(-c4noc(C)n4)cs3)CC2)cc1Cl
35 | 661 | O=C(NCc1ccccc1)Nc1c(-c2ccc(F)cc2)nc2ccccn12
36 | 983 | CCn1cc(-c2nc(C)c(C(=O)Nc3cccc(OC)c3)s2)c2cccnc21
37 | 718 | CCCNc1cc(N2CCC(CCC(=O)NCc3cccc(Cl)c3)CC2)ncn1
